Results reported in patent publication US12122811B2, “BDNF mimetic peptide amphiphiles” (Northwestern University, priority 2018, dated 2024).
Positions of bridges follow the written chain, without caps; N, C: chain ends. Non-standard residues stand in square brackets, D forms with d. Residues, ends and D or L forms follow the SMILES beside them. Chains are numbered I, II in the order given. *: point of attachment. PEG6 = NCCOCCOCCOCCOCCOCCOCCC(=O)O; Palmitoyl = CCCCCCCCCCCCCCCC(=O)*

B1: BDNF protein: Human/Murine/Rat BDNF protein (Peprotech) (protein, UniProt P23560 19-247, looked up)
Neurotrophic factor BDNF …: APMKEANIRGQGGLAYPGVRTHGTLESVNGPKAGSRGLTSLADTFEHVIEELLDEDQKVRPNEENNKDADLYTSRVMLSSQVPLEPPLLFLLEEYKNYLDAANMSMRVRRHSDPARRGELSVCDSISEWVTAADKKTAVDMSGGTVTVLEKVPVSKGQLKQYFYETKCNPMGYTKEGCRGIDKRHWNSQCRTTQSYVRALTMDSKKRIGWRFIRIDTSCVCTLTIKRGR

Tests used:
[1] = system: mouse model of spinal cord injury; assay: Mouse model of spinal cord injury, Basso Mouse Scale hind limb scoring; type: in vivo; conditions: for hindlimb function: over 12 weeks, vs E2 PA or saline
Description: The spinal cord injury procedures used follow a standardized protocol to ensure a reproducible injury. Mice were anesthetized and their back is opened to reveal the vertebral column. The vertebral bone at T11 was surgically removed to reveal the spinal cord tissue. The mice were then transferred the impactor machine which is used to inflict a compression injury on the exposed spinal cord. The spinal cord was held in place using stereotactic clamps. The instrument inflicts a force of 70-80 kDynes and dwells in the place of the impact for 60 seconds to simulate a crush injury accident. This injury is quite severe. After each impact was performed, the instrument supplies a graph corresponding to the real force and trajectory of the impactor. This graph is used to compare and ensure that all animals receive an injury of the same nature. After the injury is inflicted, the animals were closed and allowed to rest for 24 hours.
The next day, the animals were re-opened and prepared for the “treatment” surgery. Before beginning the procedure, all animals underwent a behavioral assessment and mice with hind limb movement were discarded from the study. When the animal is re-opened, there was typically a dark, bruised area apparent where the crush injury took place the previous day. This is where the treatment was injected. A Hamilton syringe attached to a glass-pulled needle with a diameter of ˜300 μm was used to puncture the bruised dermis of the tissue and the treatment was injected into the underlying tissue cavity. Treatment types include; saline, and the C16V2A2E2 (E2) non-bioactive PA gel as negative controls, as well as the BDNF PA co-assembled at 20 mol % with the E2 non-bioactive PA gel.
After injection, the animals were closed and returned to cages to recover. Over the next 12 weeks, blinded hind limb behavioral scoring was performed to assess any functional changes (FIG. 21). A standardized “Basso Mouse Scale” was used (Basso et al. J Neurotrauma. 2006 May; 23(5):635-59.; herein incorporated by reference in its entirety). Two blinded researchers were either side of a runway where the mouse was guided to move in a straight line. As the mouse walks, each researcher grades the limb movement. Any discrepancies in evaluation were re-evaluated by a third researcher. The score for the two limbs was averaged and marked as the score for that animal.

TrkB receptor = biological target: T1, TrkB receptor (Mus musculus, UniProt P15209); assay: TrkB receptor phosphorylation (p-TrkB) by western blot in primary cortical neurons; type: cell-based; conditions: for TrkB phosphorylation after pre-treatment with inhibitor K252a: K252a 2 h prior to treatment, 6 h post-treatment
T1 construct: Protein was extracted from primary neuronal cultures; endogenous in cells; host or cells: primary cortical neurons from E16 CD1 mouse embryos, 14 DIV
Method: 2.3.2. Dissection of Embryonic Primary Cortical Neurons. Neurons were obtained from embryonic brains as described elsewhere.^2 Briefly, time-pregnant mouse was sacrificed by cervical dislocation and the embryos were extracted at embryonic day 16 (E16). Cerebral cortices were dissected from the mouse embryos and meninges were removed in a solution of Hank's Balanced Salt Solution (HBSS) with 1% pen-strep (Invitrogen) and then digested with trypsin (Invitrogen) and DNAse (Sigma-Aldrich) for 10 min at 37° C. The tissue was mechanically dissociated, centrifuged at 1000 g for 5 min, and resuspended in CO2-equilibrated Neurobasal (NB) neuronal culture medium (Invitrogen) supplemented with 10% normal horse serum (NHS) (Invitrogen), 1% pen-strep (Invitrogen), 0.5 mM L-glutamine (Invitrogen), and 5.8 μL NaHCO3/mL (Sigma-Aldrich). The cell suspension was pre-plated at 37° C. for 30 min. Afterwards, the supernatant was collected, passed through a cell strainer with 100 μm pore size and centrifuged at 1000 g for 5 min. The pellet was resuspended in NB neuronal culture medium (1% NHS, 1% pen-strep, 0.5 mM L-glutamine, 22 μM glutamic acid (Sigma-Aldrich), 2% B27 (Gibco), and 5.8 μL NaHCO3/mL (Sigma-Aldrich), and plated at different densities (depending on the type of experiment, see below) directly on tissue culture plates coated with poly-D-lysine (Sigma-Aldrich). After 24 hs, the medium was replaced with serum-free neuronal culture medium (1% pen-strep, 0.5 mM L-glutamine, 2% B27, 5.8 μL NaHCO3/mL). Under these conditions, we obtained a neuron-enriched culture with a composition of approximately 10% glial cells.
BDNF PA Treatments and Cell Culture Procedures. Treatments were prepared by dissolving PA (including E2 Filler, E2 Filler+E4PEG, E2 Filler+Linear BDNF, E2 Filler+BDNF PAs) and BDNF peptide at different concentrations (0.5, 1.0 or 5.0 μM), in media without serum or B27 supplement or starvation media. Unless otherwise noted, BDNF PA, Linear BDNF PA, or E4PEG PAs were co-assembled at 10 mol % with E2 filler PA (total concentration of PA was 5.0, 10.0, or 50.0 μM respectively). For the co-assembly ratio study, BDNF PA was co-assembled at 10, 20, 50, 70, 90, and 100 mol %. Human/Murine/Rat BDNF protein (Peprotech) was resuspended at different concentrations (0.25, 0.5 and 1 nM) in starvation media.
For western blot, cells were cultured in 6 well plates at a density of approximately 900,000 cells/well for 14 DIV before being treated. Treatments were added for 2, 4, 6, 8, 12 or 24 h in vitro before protein was harvested. […] Protein was extracted after six hours of treatment.
Western Blot. Protein was extracted from primary neuronal cultures with Halt Protease and Phosphatase Inhibitor Cocktail (Thermo Scientific) and a BCA assay (Thermo Scientific) was performed to determine protein content of each sample. Cell protein was loaded into and separated using a 4-20% SDS-PAGE gel (Bio-Rad). It was then electrotransferred from the gel to a nitrocellulose membrane (Bio-Rad). The membranes were blocked with 5% milk solution (Bio-Rad) for 30 minutes followed by an overnight incubation with primary antibodies at 4° C. The following primary antibodies were used: rabbit anti-pTrkB (1:1000, Cell Signaling), rabbit anti-TrkB (1:1000, Cell Signaling), rabbit anti-Actin (1:2000, Sigma Aldrich), mouse anti-Actin (1:2000, Sigma Aldrich), rabbit anti-pPLCγ (1:1000, Cell Signaling), rabbit anti-PLCγ (1:1000, Cell Signaling), rabbit anti-pAKT (1:2000, Cell Signaling), mouse anti-AKT (1:2000, Cell Signaling), rabbit anti-pERK1+ERK2 (1:1000, Abcam), rabbit anti-ERK 1/2 (1:1000, Cell Signaling), rabbit anti-PSD95 (1:1000, Abcam), rabbit anti-MAP-2 (1:2000, BioLegend), and mouse anti-Tuj-1 (1:1000, BioLegend). Membranes were then incubated with their corresponding secondary HRP-conjugated antibodies (1:1000; ThermoFisher). Protein signals were detected using Radiance Bioluminescent ECL substrate (Azure Biosystems). […]

T1 sequence (P15209 32-821): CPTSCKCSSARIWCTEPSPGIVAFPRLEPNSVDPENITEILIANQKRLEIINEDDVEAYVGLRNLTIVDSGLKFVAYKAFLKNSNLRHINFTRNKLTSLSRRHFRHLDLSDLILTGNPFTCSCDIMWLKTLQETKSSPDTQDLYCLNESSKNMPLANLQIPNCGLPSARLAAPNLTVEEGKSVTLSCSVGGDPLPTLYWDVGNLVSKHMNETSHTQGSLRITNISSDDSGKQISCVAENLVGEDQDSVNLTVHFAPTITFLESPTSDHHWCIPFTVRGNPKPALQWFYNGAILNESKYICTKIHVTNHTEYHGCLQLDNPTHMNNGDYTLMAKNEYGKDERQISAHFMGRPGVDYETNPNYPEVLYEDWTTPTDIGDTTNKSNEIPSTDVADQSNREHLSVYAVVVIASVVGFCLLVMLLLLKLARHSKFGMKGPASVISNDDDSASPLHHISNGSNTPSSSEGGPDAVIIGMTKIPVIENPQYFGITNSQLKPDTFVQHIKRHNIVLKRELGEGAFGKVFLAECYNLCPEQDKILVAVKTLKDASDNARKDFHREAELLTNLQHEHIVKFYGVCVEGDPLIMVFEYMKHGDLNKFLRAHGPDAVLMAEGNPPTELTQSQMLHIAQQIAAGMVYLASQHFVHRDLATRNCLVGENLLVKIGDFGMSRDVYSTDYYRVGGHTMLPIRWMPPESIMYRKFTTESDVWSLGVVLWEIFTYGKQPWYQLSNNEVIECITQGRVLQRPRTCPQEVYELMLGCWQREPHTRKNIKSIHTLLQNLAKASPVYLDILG

Molecule	final average limb behavioral score (Basso Mouse Scale) ([1]; 12 weeks after injury, BDNF PA co-assembled at 20 mol % with E2 PA gel, injected 24 h after injury)	rate of hindlimb improvement ([1]; first three weeks following injury)	hindlimb function [1]	hindlimb function ([1]; listed as BDNF mimetic PA)	dose dependence of TrkB activation (TrkB receptor; 0.5, 1.0 and 5.0 μM, 6 h)	activation of TrkB receptor, co-assembly ratio study (TrkB receptor; 10-50 mol % BDNF PA co-assembled with E2 Filler PA, 6 h)	activation of TrkB receptor, co-assembly ratio study (TrkB receptor; 90-100 mol % BDNF PA (do not form fibers), 6 h)	TrkB phosphorylation after pre-treatment with inhibitor K252a (TrkB receptor)	persistence of p-TrkB (TrkB receptor; BDNF protein 0.25 nM, time course to 24 h)
CCCCCCCCCCCCCCCC(=O)N[C@H](C(=O)N[C@H](C(=O)N[C@@H](C)C(=O)N[C@@H](C)C(=O)N[C@@H](CCC(=O)O)C(=O)N[C@@H](CCC(=O)O)C(=O)N[C@@H](CCC(=O)O)C(=O)N[C@@H](CCC(=O)O)C(=O)NCCOCCOCCOCCOCCOCCOCCC(=O)NCCCC[C@@H]1NC(=O)[C@H]2CCCN2C(=O)[C@H](CCCNC(=N)N)NC(=O)[C@H](CCCCN)NC(=O)[C@H](CCCCN)NC1=O)C(C)C)C(C)C [BDNF PA, RKK(aK)(dP)-(PEG6 Spacer)-EEEEAAVV-C16 (SEQ ID NO: 5)] (I: Palmitoyl-VVAAEEEE[PEG6] / II: cyclo(KKKR[dP]); amide I:C-II:1)	3.7	increased rate of hindlimb improvement	increased functional hind limb recovery	significant improvement in hindlimb function	no dose-dependent activation of TrkB	increase in activation of TrkB receptor in comparison with the control conditions	unable to activate the receptor to the same degree	completely blocked	
B1								completely blocked	no longer showing p-TrkB after 12 h
